Test results reported in ChEMBL document CHEMBL1201862, “PubChem BioAssay data set” (2004).
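96-well plates; 48 h exposure; 5 concentrations. Endpoints by linear interpolation between flanking doses. Not reached: highest tested concentration assigned. GI50 marks 50% less growth.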 Activity calls are given as the source filed them. No stated cut-off is given here; in the data, active = GI50 up to about 1.1 µM and inactive = higher.

Legend:
Assay in all cases: NCI-60 cell line screen, 48 h
SK-MEL-28 = test system: SK-MEL-28
786-0 = test system: 786-0
RPMI-8226 = test system: RPMI-8226
MDA-MB-435 = test system: MDA-MB-435
HT-29 = test system: HT-29
HCC 2998 = test system: HCC 2998
SNB-19 = test system: SNB-19
Malme-3M = test system: Malme-3M
SK-MEL-2 = test system: SK-MEL-2
U-251 = test system: U-251
NCI-H460 = test system: NCI-H460
NCI-H23 = test system: NCI-H23
SW-620 = test system: SW-620
OVCAR-8 = test system: OVCAR-8
DU-145 = test system: DU-145
HOP-92 = test system: HOP-92
OVCAR-5 = test system: OVCAR-5
TK-10 = test system: TK-10
K562 = test system: K562
MDA-N = test system: MDA-N

| SMILES | GI50 (SK-MEL-28) | GI50 (786-0) | GI50 (RPMI-8226) | GI50 (MDA-MB-435) | GI50 (HT-29) | GI50 (HCC 2998) | GI50 (SNB-19) | GI50 (Malme-3M) | GI50 (SK-MEL-2) | GI50 (U-251) | GI50 (NCI-H460) | GI50 (NCI-H23) | GI50 (SW-620) | GI50 (OVCAR-8) | GI50 (DU-145) | GI50 (HOP-92) | GI50 (OVCAR-5) | GI50 (TK-10) | GI50 (K562) | GI50 (MDA-N) |
| --- | --- | --- | --- | --- | --- | --- | --- | --- | --- | --- | --- | --- | --- | --- | --- | --- | --- | --- | --- | --- |
| CC(C)C[C@H](NC(=O)[C@@H](Cc1cccc2ccccc12)NC(=O)N1CCOCC1)B(O)O | 2.14 µM (inactive) | 4.79 µM (inactive) | 2.52 µM (inactive) | 1.92 µM (inactive) | 2.64 µM (inactive) | 2.01 µM (inactive) | 9.77 µM (inactive) | 1.58 µM (inactive) | 3.33 µM (inactive) | 4.57 µM (inactive) | 18.5 µM (inactive) | 2.9 µM (inactive) | 3.14 µM (inactive) | 16.7 µM (inactive) | 10.9 µM (inactive) | 2.67 µM (inactive) | 3.19 µM (inactive) | 6.47 µM (inactive) | 3.55 µM (inactive) | 2.59 µM (inactive) |
| O=C(O)C1CC(c2ccc(F)cc2)=Nc2ccc(F)cc2S1 (stereo not given) | > 100 µM (inactive) | > 100 µM (inactive) | > 100 µM (inactive) | > 100 µM (inactive) | > 100 µM (inactive) | > 100 µM (inactive) | > 100 µM (inactive) | > 100 µM (inactive) | > 100 µM (inactive) | > 10 µM (inactive) | > 100 µM (inactive) | > 100 µM (inactive) | > 100 µM (inactive) | > 100 µM (inactive) | > 100 µM (inactive) | > 100 µM (inactive) | > 100 µM (inactive) | > 100 µM (inactive) | > 100 µM (inactive) | > 100 µM (inactive) |
| CN(C)c1ccc(/C=C/C=C(/C#N)c2ccccc2)cc1 | > 82.4 µM (inactive) | 28.1 µM (inactive) | 21.9 µM (inactive) | 2 µM (inactive) | 7.57 µM (inactive) | 30.3 µM (inactive) | 30.1 µM (inactive) | 14 µM (inactive) | 13.7 µM (inactive) | 17.1 µM (inactive) | 25.5 µM (inactive) | 36.9 µM (inactive) | 6.34 µM (inactive) | 33 µM (inactive) | 55.7 µM (inactive) | 78.7 µM (inactive) | > 62.7 µM (inactive) | 42.8 µM (inactive) | 4.22 µM (inactive) | 1.94 µM (inactive) |
| COC(=O)CCc1cc(OC)c2oc(-c3ccc(OC)c(OC)c3)c(CO)c2c1 | > 100 µM (inactive) | > 100 µM (inactive) | 99.5 µM (inactive) | > 100 µM (inactive) | > 100 µM (inactive) | 1.7 µM (inactive) | > 100 µM (inactive) | > 100 µM (inactive) | 65 µM (inactive) | > 100 µM (inactive) | > 100 µM (inactive) | > 100 µM (inactive) | > 100 µM (inactive) | > 100 µM (inactive) | > 100 µM (inactive) | > 100 µM (inactive) | > 100 µM (inactive) | > 100 µM (inactive) | > 100 µM (inactive) | > 100 µM (inactive) |
| C[C@]12CC[C@H]3[C@@H](CC=C4C[C@@H](O)CC[C@@]43C)[C@@H]1C/C(=C/c1ccccc1)[C@@H]2O | > 44.6 µM (inactive) | 22.1 µM (inactive) | > 32.1 µM (inactive) | > 46 µM (inactive) | 28.3 µM (inactive) | 17.9 µM (inactive) | 22.4 µM (inactive) | 27.5 µM (inactive) | 20.9 µM (inactive) | > 35.9 µM (inactive) | 20.1 µM (inactive) | 15.9 µM (inactive) | > 51.8 µM (inactive) | 20.9 µM (inactive) | > 42.2 µM (inactive) | 32.4 µM (inactive) | > 46.7 µM (inactive) | 27.8 µM (inactive) | > 23.6 µM (inactive) | 20.1 µM (inactive) |
| CCN(C(=S)N[C@@H](Cc1ccccc1)C(=O)N[C@@H](CC(C)C)C(=O)OC)c1ccccc1 | > 100 µM (inactive) | > 100 µM (inactive) | 75.9 µM (inactive) | > 100 µM (inactive) | 46 µM (inactive) | > 100 µM (inactive) | 49.2 µM (inactive) | > 100 µM (inactive) | > 100 µM (inactive) | 50.7 µM (inactive) | 58.2 µM (inactive) | 71.4 µM (inactive) | 50.6 µM (inactive) | > 100 µM (inactive) | > 100 µM (inactive) | > 100 µM (inactive) | > 100 µM (inactive) | > 100 µM (inactive) | 43.2 µM (inactive) | > 100 µM (inactive) |
| NCCOc1cccc(C2(N3CCCCC3)CCCCC2)c1 | 18.7 µM (inactive) | 13.3 µM (inactive) | 20.9 µM (inactive) | 17.1 µM (inactive) | 15.5 µM (inactive) | 19.9 µM (inactive) | > 100 µM (inactive) | 20.1 µM (inactive) | 21.8 µM (inactive) | 18.2 µM (inactive) | 41.5 µM (inactive) | > 100 µM (inactive) | 31.5 µM (inactive) | 33.4 µM (inactive) | > 100 µM (inactive) | 0.773 µM (active) | 41.4 µM (inactive) | 33.7 µM (inactive) | 16 µM (inactive) | 18.5 µM (inactive) |
